Source: patent US12428391B2, “Dimethylsulfoximine derivative” (CISEN PHARMACEUTICAL CO., LTD, priority 2020, dated 2025)
pIC50: −log10 of the molar value. Each block holds one compound with its values, some of them ahead of it.

Experiments:
NLRP3 = molecular target: T1, NLRP3 (Homo sapiens, UniProt Q96P20); experiment: IC50 experiment for the detection of NLRP3 antagonist using THP-1 cells (IL-1β secretion, PMA/LPS/ATP); type: cell-based
T1 construct: endogenous in cells
Text: The chemical names and structural formulas of the compounds of the present disclosure for experimental use are shown in the preparation embodiments for each compound. • 1. Experimental principle: In this experiment, the human monocytic cell line THP1 was used to study the inhibitory activity (IC50) of NLRP3 antagonists on the secretion of IL-1β. The monocytic cell line THP1 was differentiated into mature macrophages using PMA (phorbol 12-myristate 13-acetate), and then the cells were stimulated using LPS (lipopolysaccharide), an agonist of Toll-like receptor TLR4, to activate the transcriptional activity of inflammasome NLRP3 and the expression of IL-1β precursor pro-IL-1β. At this time, the NLRP3 antagonist was added, and then ATP was added to further mature and activate NLRP3, and activate downstream caspase-1. Pro-IL-1β could be enzyme-cleaved by the activated caspase-1 to mature IL-1β that could be secreted.

[1] = tested on: MSU-induced Air Pouch acute gout model; experiment: MSU-induced Air Pouch acute gout model, IL-6 and IL-1β in APLV; type: in vivo, C57BL/6 mice; conditions: for level of IL-1β in APLV after treatment / level of IL-6 in APLV after treatment: MCC950 50 mg/kg po, 7a 50, 15, 5 mg/kg po, dexamethasone 10 mg/kg ip, MSU 3 mg
Experimental: Experimental Embodiment 3: Evaluation of the Therapeutic Effect of the Compound on the MSU-Induced Air Pouch Acute Gout Model in C57BL/6 Mice
Air Pouch of mouse is a cystic space similar to the human synovial membrane, and the injection of monosodium urate crystals (MSU) into the air pouch will cause an acute inflammatory response similar to human gout. The inflammatory cytokines IL-6 and IL-1β in the Air Pouch Lavage Fluid flushing fluid (APLV) were analyzed, and MCC950 was used as a control compound, and the efficacy of the compound of the present disclosure on the MSU-induced air pouch gout model in male C57BL/6 mice was tested.
On the seventh day, the drug was administered first, and the MSU crystal solution was injected into the air pouch after 1 hour, and the Air Pouch Lavage Fluid (APLV) was collected after 7 hours and analyzed.
1 g of uric acid was dissolved in 0.2 L of boiling water containing 6 mL of 1 N sodium hydroxide; after the pH was adjusted to 7.4, the solution was gradually cooled at room temperature and then left overnight at 4° C. MSU crystals were recovered by centrifugation and evaporated to dryness, dispensed into individual vials (3 mg), and sterilized by autoclaving.
Healthy C57BL/6 mice were numbered and grouped in the experiment, and 5 mL of sterile air was subcutaneously injected into the back of the mice on the same day of grouping (Day 1) and on the fourth day (Day 4) to generate an air pouch. On the seventh day (Day 7), each group of mice was given vehicle or test sample, and after 1 hour the suspension of MSU crystals (saline, 3 mg/mL) was injected into the air pouch. Air Pouch Lavage Fluid (APLV) would be collected after 6 hours, and ELISA kits would be used to test the levels of IL-6 and IL-1β in APLV. Results were expressed as average value±SEM. Statistical analysis was performed by a method of analysis of variance (ANOVA), followed by Dunnett test, and differences were considered significant when p<0.05.

[2] = Pharmacokinetic evaluation of compounds in mice; type: in vivo; conditions: C57BL/6J mice
Experimental: Experimental Objective: To Test the Pharmacokinetics of Compounds in Mice
Experimental Materials: C57BL/6J Mice (Male, 6-8 Weeks Old)
Experimental operation: The clear solution obtained after the test compound was dissolved was administered to […] C57BL/6J mice (overnight fasting, 6-8 weeks old) via tail intravenous injection and intragastric administration (vehicle: 10% DMSO/10% solutol/80% water). After administration of test compound or control compound, blood was collected from the mandibular vein and centrifuged to obtain plasma at 0.0833, 0.25, 0.5, 1, 2, 4, 8 and 24 h for the intravenous injection group (IV) and at 0.25, 0.5, 1, 2, 4, 6, 8 and 24 h for the intragastric administration group (PO). The plasma concentration was determined by LC-MS/MS, and relevant pharmacokinetic parameters were calculated by the non-compartmental model linear logarithmic trapezoidal method using pharmacokinetic software WinNonlin™ Version 6.3. Meaning of each parameter: T1/2: half-life; Cmax: peak concentration; AUC0-inf: area under the plasma concentration-time curve from time 0 extrapolated to infinite time; F: bioavailability, Vd: apparent volume of distribution, Cl: clearance rate, Tmax: time to peak.

[3] = tested on: cryopyrin-associated auto-inflammatory syndrome (cAPS) model; conditions: mice; cited from earlier work
type II diabete model = conditions: mice; cited from earlier work
NLRP3 inflammasome = NLRP3 inflammasome (Homo sapiens, UniProt Q96P20); conditions: cited from earlier work
Chain of NLRP3 inflammasome (Q96P20 whole entry): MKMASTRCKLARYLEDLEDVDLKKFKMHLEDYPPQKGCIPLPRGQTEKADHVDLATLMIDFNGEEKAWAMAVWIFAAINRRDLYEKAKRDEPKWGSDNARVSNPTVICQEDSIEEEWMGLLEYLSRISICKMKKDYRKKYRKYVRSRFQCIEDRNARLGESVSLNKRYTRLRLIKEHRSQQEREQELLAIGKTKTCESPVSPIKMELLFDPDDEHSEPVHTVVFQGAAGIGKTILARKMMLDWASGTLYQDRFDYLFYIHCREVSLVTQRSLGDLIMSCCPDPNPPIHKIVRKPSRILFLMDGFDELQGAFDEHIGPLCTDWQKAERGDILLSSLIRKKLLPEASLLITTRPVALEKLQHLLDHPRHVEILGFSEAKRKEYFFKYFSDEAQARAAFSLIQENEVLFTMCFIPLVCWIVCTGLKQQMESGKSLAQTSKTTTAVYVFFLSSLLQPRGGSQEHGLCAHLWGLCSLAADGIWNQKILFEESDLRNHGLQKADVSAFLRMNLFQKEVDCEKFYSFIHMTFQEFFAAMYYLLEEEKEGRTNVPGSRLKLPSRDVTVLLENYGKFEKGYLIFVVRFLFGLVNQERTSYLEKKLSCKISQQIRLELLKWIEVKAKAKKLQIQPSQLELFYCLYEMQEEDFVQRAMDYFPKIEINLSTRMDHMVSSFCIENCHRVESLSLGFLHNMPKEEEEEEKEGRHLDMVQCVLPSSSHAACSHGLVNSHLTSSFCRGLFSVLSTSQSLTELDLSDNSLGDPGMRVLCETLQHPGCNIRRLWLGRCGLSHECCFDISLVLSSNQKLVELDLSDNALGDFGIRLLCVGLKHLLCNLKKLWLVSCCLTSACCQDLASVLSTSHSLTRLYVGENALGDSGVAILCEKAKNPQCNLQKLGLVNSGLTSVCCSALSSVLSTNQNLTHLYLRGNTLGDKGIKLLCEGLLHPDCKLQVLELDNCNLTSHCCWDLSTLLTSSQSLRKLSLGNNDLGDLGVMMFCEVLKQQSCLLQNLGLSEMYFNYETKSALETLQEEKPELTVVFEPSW

[4] = tested on: experimental autoimmune encephalomyelitis (EAE); conditions: mice; cited from earlier work
[5] = at the dose of 15 mg/kg and 50 mg/kg po

T1 sequence (Q96P20 whole entry): as above

pIC50 (NLRP3): 7.47
SMILES: CS(C)(=O)=Nc1ccc(S(=N)(=O)NC(=O)Nc2c3c(cc4c2CCC4)CCC3)s1 (single isomer, unassigned) [Compound 4a]

pIC50 (NLRP3): 8.13
SMILES: COc1cc(-c2ccc3c(c2NC(=O)NS(=N)(=O)c2ccc(N=S(C)(C)=O)s2)CCC3)ccn1 (single isomer, unassigned) [Compound 5a]

F ([2]; PO 20 mg/kg vs IV 3 mg/kg): 67.6% | AUC(0-inf) ([2]; mouse, plasma, IV 3 mg/kg): 65.7 µM·h | Vd ([2]; mouse, plasma, IV 3 mg/kg): 0.25 L/kg | clearance ([2]; mouse, plasma, IV 3 mg/kg): 1.68 mL/min/kg | half-life ([2]; mouse, plasma, IV 3 mg/kg): 2.1 h | AUC(0-inf) ([2]; mouse, plasma, PO 20 mg/kg): 296 µM·h | Cmax ([2]; mouse, plasma, PO 20 mg/kg): 102 µM | Tmax ([2]; mouse, plasma, PO 20 mg/kg): 0.5 h | pIC50 (NLRP3): 8.01
SMILES: CS(C)(=O)=Nc1cnc(S(=N)(=O)NC(=O)Nc2c3c(cc4c2CCC4)CCC3)s1 (single isomer, unassigned) [Compound 7a]
level of IL-1β in APLV after treatment [1]: decreased rapidly | level of IL-6 in APLV after treatment [1]: decreased rapidly | reducing IL-6 in APLV compared with dexamethasone (10 mg/kg dose) ([1]; at high, medium and low doses (50, 15, 5 mg/kg po)): better than dexamethasone | reducing IL-1β in APLV compared with MCC950 (50 mg/kg dose) [1, 5]: significantly better than that of MCC950 | reducing IL-1β in APLV compared with dexamethasone (10 mg/kg) [1, 5]: reaching the same effect as dexamethasone | reducing IL-6 in APLV compared with MCC950 (50 mg/kg dose) [1, 5]: better than MCC950 | effect on reducing IL-1β in APLV ([1]; po, MSU-induced air pouch): significant effect

SMILES: O=C(O)c1ccc(/C=C2\SC(=O)N(Cc3cccc(C(F)(F)F)c3)C2=O)cc1 [CY-09]
therapeutic effect on cAPS model [3]: significant therapeutic effects | therapeutic effect on type II diabete model (type II diabete model): significant therapeutic effects | assembly and activation of NLRP3 inflammasome (NLRP3 inflammasome): specifically blocks

pIC50 (NLRP3): 7.40
SMILES: COc1cc(-c2cccc(C(C)C)c2NC(=O)NS(=O)(=O)c2ccc(N=S(C)(C)=O)s2)ccn1 [Compound 2]

pIC50 (NLRP3): 8.00
SMILES: COc1cc(-c2ccc3c(c2NC(=O)NS(=O)(=O)c2ccc(N=S(C)(C)=O)s2)CCC3)ccn1 [Compound 3]

pIC50 (NLRP3): 7.56
SMILES: CS(C)(=O)=Nc1ccc(S(=N)(=O)NC(=O)Nc2c(-c3ccnc(C#N)c3)ccc3c2CCC3)s1 (stereo not drawn) [Compound 8]

SMILES: CC(C)(O)c1coc(S(=O)(=O)NC(=O)Nc2c3c(cc4c2CCC4)CCC3)c1 [MCC950, reference compound]
level of IL-1β in APLV after treatment [1]: decreased rapidly | level of IL-6 in APLV after treatment [1]: decreased rapidly | severity of experimental autoimmune encephalomyelitis (EAE) [4]: reduce the severity
